Structures are written as SMILES.

This assay addresses T1, FGFR1 V561M (Homo sapiens, UniProt P11362, V561M).
T1 construct: purchased Thermo Fisher Scientific (Life Technologies) SelectScreen
As to the kind of experiment: SelectScreen LanthaScreen. Format: binding. Conditions: read-out: % displacement. In short, it runs like this:
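SelectScreen broad panel; activity (Z'LYTE, Adapta) plus binding formats. ATP: Km app for CSF1R Z'LYTE; 10 for CAMK1 Adapta. Readout = % per kinase.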

T1 sequence (P11362 22-822 V561M): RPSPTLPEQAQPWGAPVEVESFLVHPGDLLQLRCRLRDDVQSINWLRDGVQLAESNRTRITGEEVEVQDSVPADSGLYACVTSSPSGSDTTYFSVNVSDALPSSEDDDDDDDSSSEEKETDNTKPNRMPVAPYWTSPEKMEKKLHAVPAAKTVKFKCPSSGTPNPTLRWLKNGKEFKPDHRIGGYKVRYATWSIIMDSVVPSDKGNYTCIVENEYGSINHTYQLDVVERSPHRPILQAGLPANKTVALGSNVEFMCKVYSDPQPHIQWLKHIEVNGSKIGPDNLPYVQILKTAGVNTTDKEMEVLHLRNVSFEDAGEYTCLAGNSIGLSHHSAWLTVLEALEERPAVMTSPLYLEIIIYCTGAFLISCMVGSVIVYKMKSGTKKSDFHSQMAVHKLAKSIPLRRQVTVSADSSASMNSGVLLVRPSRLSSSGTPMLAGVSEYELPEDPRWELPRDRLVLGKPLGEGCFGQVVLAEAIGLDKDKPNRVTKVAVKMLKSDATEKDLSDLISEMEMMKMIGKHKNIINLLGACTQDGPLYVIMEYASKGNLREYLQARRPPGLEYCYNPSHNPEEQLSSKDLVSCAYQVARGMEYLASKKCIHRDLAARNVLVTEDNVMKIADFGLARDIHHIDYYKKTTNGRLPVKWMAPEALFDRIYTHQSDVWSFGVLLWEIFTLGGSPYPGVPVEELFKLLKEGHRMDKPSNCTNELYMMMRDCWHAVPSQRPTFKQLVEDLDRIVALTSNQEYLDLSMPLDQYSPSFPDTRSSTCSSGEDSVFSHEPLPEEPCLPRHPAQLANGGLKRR

`CN(C(=O)CN1CCOCC1)c1ccc2sc3c(-c4cccc5c(=O)cc(N6CC7CCC(C6)O7)oc45)cccc3c2c1` [NU5455]: the inhibition at 1 µM was determined as 5.1%.

These data come from article PMC6934184, “Selective DNA-PKcs inhibition extends the therapeutic index of localized radiotherapy and chemotherapy” (The Journal of Clinical Investigation, 2019).
